{"source": "patent US12097192B2", "about": "(Corcept Therapeutics Incorporated, priority 2019, dated 2024)", "key": {"[1]": {"test_system": "Cushing's syndrome patients", "experiment": "Phase 2 CORT125134-451 study in Cushing syndrome: overall clinical efficacy", "format": "in vivo, human", "experimental": "All patients gave informed consent before participating in any study-related procedures. […] Response criteria for hyperglycemia were changes from baseline in glucose tolerance as measured by: ≥0.5% decrease in HbA1c, normalization or ≥50 mg/dL decrease in 2-hr OGTT glucose, or decrease in total daily insulin (≥25%) or sulfonylurea dose (≥50%). Response criteria for hypertension (HTN) was a ≥5 mm Hg decrease in mean systolic and/or diastolic blood pressure (SBP/DBP). […] The efficacy of the drug in Cushing syndrome was assessed based on the improvement of morbidities associated with excess cortisol activity, e.g. hyperglycaemia, hypertension, cognitive dysfunction, depression, poor quality of life, hypercoagulopathy and obesity. (A morbidity associated with excess cortisol, e.g., associated with hypercortisolemia, Cushing's syndrome, Cushing's disease, etc., is also termed a “comorbidity”.)"}, "[2]": {"test_system": "Cushing's syndrome patients", "experiment": "Cushing's syndrome patient study: depression (BDI-II), Cushing QOL, cognitive tests", "format": "in vivo, human", "conditions": "All Subjects", "from_the_text": "All patients gave informed consent before participating in any study-related procedures. […] The study protocol called for patient visits to the study site at screening, on Day 1 (baseline), Weeks 2, 4, 6, 8, 10, and 12, and after a 4-week follow-up period for Group 1. For Group 2, the protocol called for patient visits to the study site at screening, on Day 1 (baseline), Weeks 2, 4, 6, 8, 10, 12, 14, and 16, and after a 4-week follow-up period. Patient dosing will be done at home, except on days of study visits. […] It ignores noncompliance, protocol deviations, withdrawal, and anything that happens after randomization. In contrast, per-protocol (PP) analysis refers to inclusion in the analysis of only those patients who strictly adhered to the protocol. The PP analysis provides an estimate of the true efficacy of an intervention, i.e., among those who completed the treatment as planned."}, "progesterone receptor": {"target": "T1, progesterone receptor (Homo sapiens, UniProt P06401)", "T1 sequence (P06401 1-933)": "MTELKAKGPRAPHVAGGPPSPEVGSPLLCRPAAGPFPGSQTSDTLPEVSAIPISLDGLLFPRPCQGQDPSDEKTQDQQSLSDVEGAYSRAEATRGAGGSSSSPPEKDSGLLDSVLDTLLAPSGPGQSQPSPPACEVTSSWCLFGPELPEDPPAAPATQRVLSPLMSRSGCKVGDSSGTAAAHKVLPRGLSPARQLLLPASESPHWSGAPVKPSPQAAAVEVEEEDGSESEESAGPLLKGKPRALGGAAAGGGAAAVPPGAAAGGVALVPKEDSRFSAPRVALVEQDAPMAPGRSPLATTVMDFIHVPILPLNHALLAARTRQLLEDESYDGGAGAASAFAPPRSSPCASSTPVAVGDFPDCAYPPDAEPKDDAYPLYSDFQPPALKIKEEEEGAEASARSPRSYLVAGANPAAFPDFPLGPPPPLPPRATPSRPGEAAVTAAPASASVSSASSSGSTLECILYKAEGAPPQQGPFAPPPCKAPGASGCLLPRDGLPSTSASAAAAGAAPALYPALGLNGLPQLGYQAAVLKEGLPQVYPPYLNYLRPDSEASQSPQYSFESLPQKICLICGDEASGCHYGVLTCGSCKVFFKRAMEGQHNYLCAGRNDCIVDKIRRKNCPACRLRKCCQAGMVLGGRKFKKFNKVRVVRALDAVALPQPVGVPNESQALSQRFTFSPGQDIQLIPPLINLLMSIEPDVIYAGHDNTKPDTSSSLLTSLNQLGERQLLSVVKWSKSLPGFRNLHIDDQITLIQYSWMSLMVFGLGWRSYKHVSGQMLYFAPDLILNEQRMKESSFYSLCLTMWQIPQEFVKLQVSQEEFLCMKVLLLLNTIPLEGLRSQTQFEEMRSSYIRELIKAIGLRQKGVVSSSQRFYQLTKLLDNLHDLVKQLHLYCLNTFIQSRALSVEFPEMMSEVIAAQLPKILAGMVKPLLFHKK", "experiment": "Progesterone receptor affinity / binding"}, "[3]": {"test_system": "Cushing's syndrome patients", "experiment": "Cushing's syndrome patient study: weight loss", "format": "in vivo, human", "from_the_text": "(§1) All patients gave informed consent before participating in any study-related procedures."}, "[4]": {"test_system": "Cushing's syndrome patients", "experiment": "Cushing's syndrome patient study: safety and adverse events", "format": "in vivo, human", "from_the_text": "as §1\nThe safety protocol also included assessments by physical examination findings, vital signs, ECG results, pregnancy tests, clinical laboratory test results (hematology and chemistry panels), adverse events (AEs), and concomitant medications."}, "[5]": {"conditions": "mITT, Group 1 (100-200 mg/day, 12 weeks)"}, "[6]": {"conditions": "mITT, Group 2 (250-400 mg/day, 16 weeks)"}, "[7]": {"conditions": "mPP, Group 1 (100-200 mg/day, 12 weeks)"}, "[8]": {"conditions": "mPP, Group 2 (250-400 mg/day, 16 weeks)"}}, "note": "Entries after “also recorded” stand apart in the source; their conditions may differ."}
{"smiles": "Cn1cc(S(=O)(=O)N2CCC3=Cc4c(cnn4-c4ccc(F)cc4)C[C@]3(C(=O)c3cc(C(F)(F)F)ccn3)C2)cn1", "note": "[relacorilant, (R)-(1-(4-fluorophenyl)-6-((1-methyl-1H-pyrazol-4-yl)sulfonyl)-4,4a,5,6,7,8-hexahydro-1H-pyrazolo[3,4-g]isoquinolin-4a-yl) (4-(trifluoromethyl)pyridin-2-yl)methanone]", "values": [{"measurement": "reduction of the effects of excess cortisol", "setting": "[1]; Cushing's syndrome patients", "value": "effective in reducing many of the effects of excess cortisol"}, {"measurement": "time to improvement in hyperglycaemia and hypertension", "setting": "[1]; after achieving a therapeutic dose", "value": "within two weeks"}, {"measurement": "clinical effect on hyperglycemia and hypertension", "setting": "[1]; dosages up to 400 mg/day", "value": "clinical improvement in hyperglycemia and hypertension"}, {"measurement": "secondary endpoints: hypercoagulopathy, liver function, serum osteocalcin, cognitive function, depression, quality of life", "setting": "[1]; high-dose group", "value": "statistically significant improvements"}, {"measurement": "efficacy relative to previous metyrapone therapy (primary and secondary endpoints)", "setting": "[1]; two patients treated previously with metyrapone", "value": "higher efficacy"}, {"measurement": "BDI-II Total Score mean change from Baseline to Last Observed", "setting": "[2]; [5]", "value": "−3.06"}, {"measurement": "Cushing QOL Score mean change from Baseline to Last Observed", "setting": "[2]; [5]", "value": 6.25}, {"measurement": "Part A - Total Time to Complete T mean change from Baseline to Last Observed", "setting": "[2]; [5]", "value": "−3.65"}, {"measurement": "Part B - Total Time to Complete T mean change from Baseline to Last Observed", "setting": "[2]; [5]", "value": "−15.94"}, {"measurement": "BDI-II Total Score mean change from Baseline to Last Observed", "setting": "[2]; [6]", "value": "−3.94"}, {"measurement": "Cushing QOL Score mean change from Baseline to Last Observed", "setting": "[2]; [6]", "value": 8.07}, {"measurement": "Part A - Total Time to Complete T mean change from Baseline to Last Observed", "setting": "[2]; [6]", "value": "−4.67"}, {"measurement": "Part B - Total Time to Complete T mean change from Baseline to Last Observed", "setting": "[2]; [6]", "value": "−34.6"}, {"measurement": "BDI-II Total Score mean change from Baseline to Last Observed", "setting": "[2]; mITT, Overall", "value": "−3.48"}, {"measurement": "Cushing QOL Score mean change from Baseline to Last Observed", "setting": "[2]; mITT, Overall", "value": 7.13}, {"measurement": "Part A - Total Time to Complete T mean change from Baseline to Last Observed", "setting": "[2]; mITT, Overall", "value": "−4.13"}, {"measurement": "Part B - Total Time to Complete T mean change from Baseline to Last Observed", "setting": "[2]; mITT, Overall", "value": "−24.69"}, {"measurement": "BDI-II Total Score mean change from Baseline to Last Observed", "setting": "[2]; [7]", "value": "−4.47"}, {"measurement": "Cushing QOL Score mean change from Baseline to Last Observed", "setting": "[2]; [7]", "value": 6.25}, {"measurement": "Part A - Total Time to Complete T mean change from Baseline to Last Observed", "setting": "[2]; [7]", "value": "−3.65"}, {"measurement": "Part B - Total Time to Complete T mean change from Baseline to Last Observed", "setting": "[2]; [7]", "value": "−15.94"}, {"measurement": "BDI-II Total Score mean change from Baseline to Last Observed", "setting": "[2]; [8]", "value": "−3.87"}, {"measurement": "Cushing QOL Score mean change from Baseline to Last Observed", "setting": "[2]; [8]", "value": 7.64}, {"measurement": "Part A - Total Time to Complete T mean change from Baseline to Last Observed", "setting": "[2]; [8]", "value": "−4.67"}, {"measurement": "Part B - Total Time to Complete T mean change from Baseline to Last Observed", "setting": "[2]; [8]", "value": "−34.6"}, {"measurement": "BDI-II Total Score mean change from Baseline to Last Observed", "setting": "[2]; mPP, Overall", "value": "−4.19"}, {"measurement": "Cushing QOL Score mean change from Baseline to Last Observed", "setting": "[2]; mPP, Overall", "value": 6.9}, {"measurement": "Part A - Total Time to Complete T mean change from Baseline to Last Observed", "setting": "[2]; mPP, Overall", "value": "−4.13"}, {"measurement": "Part B - Total Time to Complete T mean change from Baseline to Last Observed", "setting": "[2]; mPP, Overall", "value": "−24.69"}, {"measurement": "binding to the progesterone receptor", "setting": "progesterone receptor", "value": "lack of binding to the progesterone receptor"}, {"measurement": "progesterone receptor affinity", "setting": "progesterone receptor; evidence from Cushing's syndrome patient study", "value": "no evidence of relacorilant having any progesterone receptor affinity"}, {"measurement": "average weight loss", "setting": "[3]; doses up to 200 mg daily, within 3 months", "value": 2.2, "unit": "kg"}, {"measurement": "average weight loss", "setting": "[3]; doses up to 400 mg daily, within 3 months", "value": 5.1, "unit": "kg"}, {"measurement": "weight loss", "setting": "[3]; many of the patients", "value": "Some weight loss"}, {"measurement": "weight changes", "setting": "[3]; within 3 months, in half of the patients", "value": "significant weight changes"}, {"measurement": "adverse effects of progesterone receptor antagonism", "setting": "[4]; Cushing's syndrome patients", "value": "no adverse effects of progesterone receptor antagonism"}, {"measurement": "drug induced hypokalemia", "setting": "[4]; Cushing's syndrome patients", "value": "none of the patients suffered hypokalemia; also recorded: without any episodes of drug induced hypokalemia; also recorded: no patients developed drug induced hypokalemia; also recorded: no reported instances"}, {"measurement": "drug induced vaginal bleeding", "setting": "[4]; Cushing's syndrome patients", "value": "No drug-induced hypokalemia or vaginal bleeding; also recorded: no cases of drug induced vaginal bleeding; also recorded: no reported instances"}, {"measurement": "drug-related serious adverse events", "setting": "[4]; Cushing's syndrome patients", "value": "no drug-related serious adverse events"}, {"measurement": "most common treatment-emergent adverse events (TEAEs)", "setting": "[4]; Cushing's syndrome patients", "value": "back pain, edema, headache, and nausea"}, {"measurement": "tolerability", "setting": "[4]; Cushing's syndrome patients, up to 400 mg/day", "value": "generally well tolerated"}, {"measurement": "serious TEAEs", "setting": "[4]; all from the HD group", "value": "Five serious TEAEs were reported in 4 patients"}, {"measurement": "endometrial hypertrophy developed on previous mifepristone", "setting": "[4]; one patient previously treated with mifepristone, during treatment with relacorilant", "value": "completely resolved"}, {"measurement": "safety profile compared with mifepristone", "setting": "[4]; patients with endogenous Cushing syndrome", "value": "significantly better"}]}
